According to patent US10590140B2, “Tetrahydropyrimidodiazepine and dihydropyridodiazepine compounds for treating pain and pain related conditions” (ESTEVE PHARMACEUTICALS, S.A., priority 2016, dated 2020):
Read-outs that look alike come from different tables or passages of the source.

Legend:
[1] = biological target: human α2δ-1 subunit of Cav2.2 calcium channel (Homo sapiens (Human), UniProt P54289); assay: Binding assay to human α2δ-1 subunit of Cav2.2 calcium channel ([3H]-Gabapentin); settings: read-out: Ki (nM) α2δ-1
Sequence of human α2δ-1 subunit of Cav2.2 calcium channel (P54289 25-1103): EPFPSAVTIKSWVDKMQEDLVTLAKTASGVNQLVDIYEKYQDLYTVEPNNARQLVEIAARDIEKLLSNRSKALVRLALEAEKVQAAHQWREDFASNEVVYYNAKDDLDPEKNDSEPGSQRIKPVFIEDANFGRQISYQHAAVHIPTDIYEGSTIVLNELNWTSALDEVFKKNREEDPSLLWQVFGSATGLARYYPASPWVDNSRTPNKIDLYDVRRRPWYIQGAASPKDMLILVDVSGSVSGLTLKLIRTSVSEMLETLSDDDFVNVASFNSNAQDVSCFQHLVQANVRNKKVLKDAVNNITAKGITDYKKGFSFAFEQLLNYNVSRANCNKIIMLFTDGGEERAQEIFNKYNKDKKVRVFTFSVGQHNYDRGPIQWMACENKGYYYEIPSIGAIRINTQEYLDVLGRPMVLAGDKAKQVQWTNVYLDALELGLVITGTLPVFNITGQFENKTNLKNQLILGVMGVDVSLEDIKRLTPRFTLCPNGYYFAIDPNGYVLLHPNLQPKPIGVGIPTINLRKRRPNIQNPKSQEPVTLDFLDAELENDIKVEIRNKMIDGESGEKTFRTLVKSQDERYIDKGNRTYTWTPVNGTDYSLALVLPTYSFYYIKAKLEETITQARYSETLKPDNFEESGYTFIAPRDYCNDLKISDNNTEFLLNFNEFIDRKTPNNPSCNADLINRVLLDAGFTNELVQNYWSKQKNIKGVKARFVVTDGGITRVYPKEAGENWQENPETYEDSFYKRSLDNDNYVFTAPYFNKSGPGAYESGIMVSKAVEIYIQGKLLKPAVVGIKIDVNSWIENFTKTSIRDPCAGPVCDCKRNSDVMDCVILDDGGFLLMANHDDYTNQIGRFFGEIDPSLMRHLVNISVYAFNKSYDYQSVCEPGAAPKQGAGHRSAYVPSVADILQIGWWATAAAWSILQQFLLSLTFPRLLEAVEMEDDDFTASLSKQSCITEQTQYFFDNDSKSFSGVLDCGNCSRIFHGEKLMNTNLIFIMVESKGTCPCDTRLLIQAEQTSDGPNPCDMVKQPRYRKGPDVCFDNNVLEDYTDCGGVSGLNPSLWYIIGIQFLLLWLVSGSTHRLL
In short: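 [3H]-gabapentin binding, 60 min at 27° C; nonspecific binding defined with 10 μM pregabalin. Terminated by filtration on PEI-presoaked GF/C filters, ice-cold 50 mM Tris-HCl pH 7.4 washes, then scintillation counting.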

[2] = biological target: human norepinephrine transporter (NET) (Homo sapiens (Human), UniProt P23975); assay: Binding assay to human norepinephrine transporter (NET) ([3H]-Nisoxetin); settings: Table 2, dual compounds; [3H]-Nisoxetin binding
Sequence of human norepinephrine transporter (NET) (P23975 whole entry): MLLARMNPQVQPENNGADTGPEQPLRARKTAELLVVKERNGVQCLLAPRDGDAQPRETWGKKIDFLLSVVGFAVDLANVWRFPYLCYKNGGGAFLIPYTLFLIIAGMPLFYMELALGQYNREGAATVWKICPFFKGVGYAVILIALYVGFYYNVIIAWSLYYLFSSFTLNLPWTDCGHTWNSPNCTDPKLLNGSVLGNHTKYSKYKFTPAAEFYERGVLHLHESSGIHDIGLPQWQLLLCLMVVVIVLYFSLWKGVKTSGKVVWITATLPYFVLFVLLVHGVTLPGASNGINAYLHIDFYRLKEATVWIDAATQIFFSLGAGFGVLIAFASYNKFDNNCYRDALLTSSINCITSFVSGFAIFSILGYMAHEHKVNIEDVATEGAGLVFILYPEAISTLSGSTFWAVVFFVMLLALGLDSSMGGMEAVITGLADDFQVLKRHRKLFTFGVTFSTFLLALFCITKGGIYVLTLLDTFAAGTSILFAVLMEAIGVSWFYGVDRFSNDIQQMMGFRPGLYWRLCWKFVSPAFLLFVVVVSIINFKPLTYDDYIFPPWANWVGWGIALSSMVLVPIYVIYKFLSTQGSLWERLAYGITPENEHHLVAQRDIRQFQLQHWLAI
Protocol: Binding Assay to Human Norepinephrine Transporter (NET).
Human norepinephrine transporter (NET) enriched membranes (5 μg) were incubated with 5 nM of radiolabeled [3H]-Nisoxetin in assay buffer containing 50 mM Tris-HCl, 120 mM NaCl, 5 mM KCl, pH 7.4.
NSB (non specific binding) was measured by adding 1 μM. After 60 min incubation at 4° C., binding reaction was terminated by filtering through Multiscreen GF/C (Millipore) presoaked in 0.5% polyethyleneimine in Vacuum Manifold Station, followed by 3 washes with ice-cold filtration buffer containing 50 mM Tris-HCl, 0.9% NaCl, pH 7.4.
Filter plates were dried at 60° C. for 1 hour and 30 μl of scintillation cocktail were added to each well before radioactivity reading.

[3] = Table 2, dual compounds, [3H]-Gabapentin binding
[4] = binding to α2δ-1, [3H]-Gabapentin

| SMILES | Ki [1, 3] [nM] | Ki [1, 4] [nM] | Ki [2] [nM] |
| --- | --- | --- | --- |
| CCNc1ncc2c(n1)N(C)CCN(c1cccc(COCC(NC)c3ccccc3)c1)C2=O (stereo not drawn) [Example 166, 2-(ethylamino)-9-methyl-6-(3-((2-(methylamino)-2-phenylethoxy)methyl)phenyl)-6,7,8,9-tetrahydro-5H-pyrimido[4,5-e][1,4]diazepin-5-one] | 500 to 3000 | > 3000 | 500 to 1000 |
| CNC(COCc1cccc(N2CCN(C)c3nc(SC)ncc3C2=O)c1)c1ccccc1 (stereo not drawn) [Example 167, 9-methyl-6-(3-((2-(methylamino)-2-phenylethoxy)methyl)phenyl)-2-(methylthio)-6,7,8,9-tetrahydro-5H-pyrimido[4,5-e][1,4]diazepin-5-one] | > 3000 | > 3000 | > 1000 |
| CCNc1ncc2c(n1)N(C)CCN(c1cccc(C(C)(C)CNC)c1)C2=O [Example 173, 2-(ethylamino)-9-methyl-6-(3-(2-methyl-1-(methylamino)propan-2-yl)phenyl)-6,7,8,9-tetrahydro-5H-pyrimido[4,5-e][1,4]diazepin-5-one] | 500 to 3000 | 500 to 3000 | > 1000 |
| CCNc1ncc2c(n1)N(C)CCN(c1cccc(COC3(c4ccccc4)CCNCC3)c1)C2=O [Example 176, 2-(ethylamino)-9-methyl-6-(3-(((4-phenylpiperidin-4-yl)oxy)methyl)phenyl)-6,7,8,9-tetrahydro-5H-pyrimido[4,5-e][1,4]diazepin-5-one] | 500 to 3000 | 500 to 3000 | > 1000 |
| CSc1ncc2c(n1)N(C)CCN(c1cccc(COC3(c4ccccc4)CCNCC3)c1)C2=O [Example 179, 9-methyl-2-(methylthio)-6-(3-(((4-phenylpiperidin-4-yl)oxy)methyl)phenyl)-6,7,8,9-tetrahydro-5H-pyrimido[4,5-e][1,4]diazepin-5-one] | > 3000 | > 3000 | > 1000 |
| CCNc1ncc2c(n1)N(C)CCN(c1cccc(OC(CCNC)c3ccccn3)c1)C2=O (stereo not drawn) [Example 193, 2-(ethylamino)-9-methyl-6-(3-(3-(methylamino)-1-(pyridin-2-yl)propoxy)phenyl)-6,7,8,9-tetrahydro-5H-pyrimido[4,5-e][1,4]diazepin-5-one] | 500 to 3000 | 500 to 3000 | > 1000 |
| CCNc1ncc2c(n1)N(C)CCN(c1cccc(OC(CCNC)c3cccnc3)c1)C2=O (stereo not drawn) [Example 194, 2-(ethylamino)-9-methyl-6-(3-(3-(methylamino)-1-(pyridin-3-yl)propoxy)phenyl)-6,7,8,9-tetrahydro-5H-pyrimido[4,5-e][1,4]diazepin-5-one] | 500 to 3000 | 500 to 3000 | > 1000 |
| CNCC[C@@H](OCc1cccc(N2CCN(C)c3nc(N)ncc3C2=O)c1)c1ccccc1 [Example 195, (R)-2-amino-9-methyl-6-(3-((3-(methylamino)-1-phenylpropoxy)methyl)phenyl)-6,7,8,9-tetrahydro-5H-pyrimido[4,5-e][1,4]diazepin-5-one] | 500 to 3000 | 100 to 500 | 500 to 1000 |
| CNCC[C@@H](OCc1cccc(N2CCN(C)c3nc(N(C)C)ncc3C2=O)c1)c1ccccc1 [Example 196, (R)-2-(dimethylamino)-9-methyl-6-(3-((3-(methylamino)-1-phenylpropoxy)methyl)phenyl)-6,7,8,9-tetrahydro-5H-pyrimido[4,5-e][1,4]diazepin-5-one] | 500 to 3000 | 500 to 3000 | 500 to 1000 |
| CNCC[C@@H](OCc1cccc(N2CCN(C)c3nc(NC)ncc3C2=O)c1)c1ccccc1 [Example 197, (R)-9-methyl-2-(methylamino)-6-(3-((3-(methylamino)-1-phenylpropoxy)methyl)phenyl)-6,7,8,9-tetrahydro-5H-pyrimido[4,5-e][1,4]diazepin-5-one] | 500 to 3000 | 500 to 3000 | 500 to 1000 |
| CCNc1cc2c(cn1)C(=O)N(c1cccc(OC(CCNC)c3ccccc3)c1)CCN2C (stereo not drawn) [Example 198, 8-(ethylamino)-1-methyl-4-(3-(3-(methylamino)-1-phenylpropoxy)phenyl)-1,2,3,4-tetrahydro-5H-pyrido[4,3-e][1,4]diazepin-5-one] | 500 to 3000 | 500 to 3000 | 100 to 500 |
| CCNc1cc2c(cn1)C(=O)N(c1cccc(COC(CCNC)c3ccccc3)c1)CCN2C (stereo not drawn) [Example 199, 8-(ethylamino)-1-methyl-4-(3-((3-(methylamino)-1-phenylpropoxy)methyl)phenyl)-1,2,3,4-tetrahydro-5H-pyrido[4,3-e][1,4]diazepin-5-one] | 500 to 3000 | 500 to 3000 | > 1000 |
| CCNc1ncc2c(n1)N(C)CCN(Cc1ccc(OC(CNC)c3ccccc3)cc1)C2=O (stereo not drawn) [Example 201, 2-(ethylamino)-9-methyl-6-(4-(2-(methylamino)-1-phenylethoxy)benzyl)-6,7,8,9-tetrahydro-5H-pyrimido[4,5-e][1,4]diazepin-5-one] | > 3000 | > 3000 | < 100 |
| CCNc1ncc2c(n1)N(C)CCN(c1cccc(CO[C@H](CCNC)c3ccccc3)c1)C2 [Example 203, (R)—N-ethyl-9-methyl-6-(3-((3-(methylamino)-1-phenylpropoxy)methyl)phenyl)-6,7,8,9-tetrahydro-5H-pyrimido[4,5-e][1,4]diazepin-2-amine] | 500 to 3000 | 500 to 3000 | 500 to 1000 |
| CNCC[C@@H](OCc1cccc(N2CCN(C)c3nc(OC)ncc3C2=O)c1)c1ccccc1 [Example 204, (R)-2-methoxy-9-methyl-6-(3-((3-(methylamino)-1-phenylpropoxy)methyl)phenyl)-6,7,8,9-tetrahydro-5H-pyrimido[4,5-e][1,4]diazepin-5-one] | 500 to 3000 | 500 to 3000 | 100 to 500 |
| CNCC[C@@H](OCc1cccc(N2CCN(C)c3nc(C)ncc3C2=O)c1)c1ccccc1 [Example 206, (R)-2,9-dimethyl-6-(3-((3-(methylamino)-1-phenylpropoxy)methyl)phenyl)-6,7,8,9-tetrahydro-5H-pyrimido[4,5-e][1,4]diazepin-5-one] | 100 to 500 | 500 to 3000 | 100 to 500 |
| CNCC[C@@H](OCc1cccc(N2CCN(C)c3ncncc3C2=O)c1)c1ccccc1 [Example 207, (R)-9-methyl-6-(3-((3-(methylamino)-1-phenylpropoxy)methyl)phenyl)-6,7,8,9-tetrahydro-5H-pyrimido[4,5-e][1,4]diazepin-5-one] | 500 to 3000 | 500 to 3000 | 500 to 1000 |
| CNCCC(OCc1cccc(N2CCN(C)c3nc(SC)ncc3C2=O)c1)c1cccs1 (stereo not drawn) [Example 208, 9-Methyl-6-(3-((3-(methylamino)-1-(thiophen-2-yl)propoxy)methyl)phenyl)-2-(methylthio)-6,7,8,9-tetrahydro-5H-pyrimido[4,5-e][1,4]diazepin-5-one] | 500 to 3000 | 500 to 3000 | 500 to 1000 |
| CNCC[C@@H](OCc1cccc(N2CCN(C)c3nc(SC)ncc3C2=O)c1)c1cccs1 [Example 209, (R)-9-methyl-6-(3-((3-(methylamino)-1-(thiophen-2-yl)propoxy)methyl)phenyl)-2-(methylthio)-6,7,8,9-tetrahydro-5H-pyrimido[4,5-e][1,4]diazepin-5-one] | 100 to 500 | 100 to 500 | 100 to 500 |
| CNCC[C@H](OCc1cccc(N2CCN(C)c3nc(SC)ncc3C2=O)c1)c1cccs1 [Example 210, (S)-9-methyl-6-(3-((3-(methylamino)-1-(thiophen-2-yl)propoxy)methyl)phenyl)-2-(methylthio)-6,7,8,9-tetrahydro-5H-pyrimido[4,5-e][1,4]diazepin-5-one] | > 3000 | > 3000 | 100 to 500 |
| CCNc1ncc2c(n1)N(C)CCN(c1cccc(COC(CNC)c3ccccc3)c1)C2=O (stereo not drawn) [Example 225, 2-(Ethylamino)-9-methyl-6-(3-((2-(methylamino)-1-phenylethoxy)methyl)phenyl)-6,7,8,9-tetrahydro-5H-pyrimido[4,5-e][1,4]diazepin-5-one] | 500 to 3000 | 500 to 3000 | > 1000 |
| CNCC(OCc1cccc(N2CCN(C)c3nc(SC)ncc3C2=O)c1)c1ccccc1 (stereo not drawn) [Example 226, 9-methyl-6-(3-((2-(methylamino)-1-phenylethoxy)methyl)phenyl)-2-(methylthio)-6,7,8,9-tetrahydro-5H-pyrimido[4,5-e][1,4]diazepin-5-one] | > 3000 | > 3000 | 500 to 1000 |
| CCNc1ncc2c(n1)N(C)CCN(c1cccc(CO[C@H](CCN(C)C)c3ccccc3)c1)C2=O [Example 236, (R)-6-(3-((3-(Dimethylamino)-1-phenylpropoxy)methyl)phenyl)-2-(ethylamino)-9-methyl-6,7,8,9-tetrahydro-5H-pyrimido[4,5-e][1,4]diazepin-5-one] | 500 to 3000 | 500 to 3000 | 500 to 1000 |
| CCNc1ncc2c(n1)N(C)CCN(c1cccc(CO[C@@H](CCN(C)C)c3ccccc3)c1)C2=O [Example 237, (S)-6-(3-((3-(dimethylamino)-1-phenylpropoxy)methyl)phenyl)-2-(ethylamino)-9-methyl-6,7,8,9-tetrahydro-5H-pyrimido[4,5-e][1,4]diazepin-5-one] | 500 to 3000 | 500 to 3000 | > 1000 |
